What was measured:
[1] = test system: barnyardgrass (Echinochloa crus-galli L.); assay: Test Example 1: foliar treatment, growth inhibition rate, barnyardgrass; assay type: in vivo; conditions: 31 g/ha active ingredient, visually observed 17th to 23rd day after application
How it was run: (§1)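 Seeds were sown in upland field soil in pots. At the target leaf stage (corn 2.0–3.5; greenfoxtail 1.0–3.0; rice 1.0–2.5; wheat 1.7–3.4), the formulated compound, diluted at a water volume of 500 L/ha with 0.1 vol % spreader, was applied by small sprayer. Plants were rated by eye on days 17–23.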

[2] = test system: crabgrass (Digitaria sanguinalis L.); assay: Test Example 1: foliar treatment, growth inhibition rate, crabgrass; assay type: in vivo; conditions: 31 g/ha active ingredient, visually observed 17th to 23rd day after application
How it was run: (§2)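 Visual scoring of growth inhibition, 0% (untreated) to 100% (complete kill), on days 17–23 following post-emergence spray of formulated compound in water (500 L/ha, 0.1 vol % spreader); plants treated at set leaf stages, e.g. corn 2.0–3.5, wheat 1.7–3.4.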

[3] = test system: greenfoxtail (Setaria viridis L.); assay: Test Example 1: foliar treatment, growth inhibition rate, greenfoxtail; assay type: in vivo; conditions: 31 g/ha active ingredient, visually observed 17th to 23rd day after application
How it was run: (§3)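 Potted upland soil; compounds as wettable powders or emulsifiable concentrates diluted in water at 500 L/ha plus 0.1 vol % spreader, foliar-sprayed at defined leaf stages (rice 1.0–2.5, wheat 1.7–3.4, corn 2.0–3.5, greenfoxtail 1.0–3.0). Growth inhibition (0–100%) scored visually 17–23 days after application.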

[4] = test system: redroot pigweed (Amaranthus retroflexus L.); assay: Test Example 1: foliar treatment, growth inhibition rate, redroot pigweed; assay type: in vivo; conditions: 31 g/ha active ingredient, visually observed 17th to 23rd day after application
How it was run: as §2

[5] = test system: prickly sida (Sida spinosa L.); assay: Test Example 1: foliar treatment, growth inhibition rate, prickly sida; assay type: in vivo; conditions: 31 g/ha active ingredient, visually observed 17th to 23rd day after application
How it was run: as §2

[6] = test system: velvetleaf (Abutilon theophrasti MEDIC.); assay: Test Example 1: foliar treatment, growth inhibition rate, velvetleaf; assay type: in vivo; conditions: 31 g/ha active ingredient, visually observed 17th to 23rd day after application
How it was run: as §1

[7] = test system: rice (Oryza sativa L.); assay: Test Example 1: foliar treatment, growth inhibition rate, rice; assay type: in vivo; conditions: 31 g/ha active ingredient, visually observed 17th to 23rd day after application
How it was run: as §3

[8] = test system: wheat (Triticum spp.); assay: Test Example 1: foliar treatment, growth inhibition rate, wheat; assay type: in vivo; conditions: 31 g/ha active ingredient, visually observed 17th to 23rd day after application
How it was run: as §3

[9] = test system: corn (Zea mays L.); assay: Test Example 1: foliar treatment, growth inhibition rate, corn; assay type: in vivo; conditions: 31 g/ha active ingredient, visually observed 17th to 23rd day after application
How it was run: as §3

[10] = test system: soybean (Glycine max Merr.); assay: Test Example 1: foliar treatment, growth inhibition rate, soybean; assay type: in vivo; conditions: 31 g/ha active ingredient, visually observed 17th to 23rd day after application
How it was run: as §2

[11] = test system: barnyardgrass; assay: Test Example 2: soil application on the day after sowing, growth inhibition rate, barnyardgrass; assay type: in vivo, Echinochloa crus-galli L.; conditions: 250 g/ha active ingredient, observed on 19th to 24th day
How it was run: (§4)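 Upland soil pots sown with crop and weed seeds; next day wettable powder or emulsifiable concentrate at prescribed active-ingredient amounts, diluted to 500 L/ha water, sprayed onto soil. Growth inhibition scored visually 19–24 days later, 0 (as untreated) to 100% (complete kill).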

[12] = test system: crabgrass; assay: Test Example 2: soil application on the day after sowing, growth inhibition rate, crabgrass; assay type: in vivo, Digitaria sanguinalis L.; conditions: 250 g/ha active ingredient, observed on 19th to 24th day
How it was run: as §4

[13] = test system: greenfoxtail; assay: Test Example 2: soil application on the day after sowing, growth inhibition rate, greenfoxtail; assay type: in vivo, Setaria viridis L.; conditions: 250 g/ha active ingredient, observed on 19th to 24th day
How it was run: as §4

[14] = test system: redroot pigweed; assay: Test Example 2: soil application on the day after sowing, growth inhibition rate, redroot pigweed; assay type: in vivo, Amaranthus retroflexus L.; conditions: 250 g/ha active ingredient, observed on 19th to 24th day
How it was run: as §4

[15] = test system: prickly sida; assay: Test Example 2: soil application on the day after sowing, growth inhibition rate, prickly sida; assay type: in vivo, Sida spinosa L.; conditions: 250 g/ha active ingredient, observed on 19th to 24th day
How it was run: as §4

[16] = test system: velvetleaf; assay: Test Example 2: soil application on the day after sowing, growth inhibition rate, velvetleaf; assay type: in vivo, Abutilon theophrasti MEDIC.; conditions: 250 g/ha active ingredient, observed on 19th to 24th day
How it was run: as §4

[17] = test system: rice; assay: Test Example 2: soil application on the day after sowing, growth inhibition rate, rice; assay type: in vivo, Oryza sativa L.; conditions: 250 g/ha active ingredient, observed on 19th to 24th day
How it was run: as §4

[18] = test system: wheat; assay: Test Example 2: soil application on the day after sowing, growth inhibition rate, wheat; assay type: in vivo, Triticum spp.; conditions: 250 g/ha active ingredient, observed on 19th to 24th day
How it was run: as §4

[19] = test system: corn; assay: Test Example 2: soil application on the day after sowing, growth inhibition rate, corn; assay type: in vivo, Zea mays L.; conditions: 250 g/ha active ingredient, observed on 19th to 24th day
How it was run: as §4

[20] = test system: soybean; assay: Test Example 2: soil application on the day after sowing, growth inhibition rate, soybean; assay type: in vivo, Glycine max Merr.; conditions: 250 g/ha active ingredient, observed on 19th to 24th day
How it was run: as §4

Row | SMILES | Growth inhibition rate (%) Barnyardgrass [1] [%] | Growth inhibition rate (%) Crabgrass [2] [%] | Growth inhibition rate (%) Greenfoxtail [3] [%] | Growth inhibition rate (%) redroot pigweed [4] [%] | Growth inhibition rate (%) Prickly sida [5] [%] | Growth inhibition rate (%) Velvetleaf [6] [%] | Growth inhibition rate (%) Rice [7] [%] | Growth inhibition rate (%) Wheat [8] [%] | Growth inhibition rate (%) Corn [9] [%] | Growth inhibition rate (%) Soybean [10] [%] | Growth inhibition rate (%) Barnyardgrass [11] [%] | Growth inhibition rate (%) Crabgrass [12] [%] | Growth inhibition rate (%) Greenfoxtail [13] [%] | Growth inhibition rate (%) redroot pigweed [14] [%] | Growth inhibition rate (%) Prickly sida [15] [%] | Growth inhibition rate (%) Velvetleaf [16] [%] | Growth inhibition rate (%) Rice [17] [%] | Growth inhibition rate (%) Wheat [18] [%] | Growth inhibition rate (%) Corn [19] [%] | Growth inhibition rate (%) Soybean [20] [%]
1 | CCn1ncc(C(=O)c2ccc(S(C)(=O)=O)c(C(=O)OC)c2C)c1OC(=O)SC(C)(C)C [compound 91] | 95 | 98 | 98 | 98 | 75 | 95 | 90 | 0 | 20 | 98 | 90 | 95 | 60 | 100 | 95 | 70 | 80 | 0 | 0 | 30
2 | COC(=O)c1c(S(C)(=O)=O)ccc(C(=O)c2cnn(C)c2OC(=O)SCc2ccccc2)c1C [compound 92] | 0 | 0 | 60 | 10 | 10 | 70 | 0 | 0 | 0 | 10 | 80 | 95 | 70 | 70 | 60 | 50 | 80 | 0 | 0 | 0
3 | CCn1ncc(C(=O)c2ccc(S(C)(=O)=O)c(C(=O)OC)c2C)c1OC(=O)SCc1ccccc1 [compound 93] | 95 | 80 | 95 | 98 | 70 | 80 | 70 | 0 | 30 | 80 | 95 | 90 | 100 | 100 | 75 | 65 | 90 | 0 | 0 | 0
4 | CCSC(=O)Oc1c(C(=O)c2ccc(S(C)(=O)=O)c(C(=O)OC)c2Cl)cnn1CC [compound 95] | 100 | 90 | 100 | 100 | 80 | 90 | 90 | 20 | 10 | 95 | 100 | 95 | 100 | 100 | 95 | 80 | 98 | 0 | 0 | 0
5 | CCn1ncc(C(=O)c2ccc(S(C)(=O)=O)c(C(=O)OC)c2Cl)c1OC(=O)SC [compound 97] | 100 | 70 | 100 | 100 | 50 | 80 | 60 | 10 | 0 | 80 | 100 | 100 | 100 | 100 | 100 | 100 | 70 | 0 | 0 | 10
6 | C=CCSC(=O)Oc1c(C(=O)c2ccc(S(C)(=O)=O)c(C(=O)OC)c2C)cnn1CC [compound 99] | 98 | 100 | 100 | 98 | 100 | 98 | 95 | 60 | 50 | 98 | 100 | 100 | 100 | 95 | 100 | 100 | 100 | 0 | 0 | 40
7 | COCCOc1c(S(C)(=O)=O)ccc(C(=O)c2cnn(C)c2OC(=O)SC(C)C)c1C [compound 207] | 95 | 95 | 100 | 100 | 60 | 100 | 70 | 0 | 0 | 100 | 100 | 100 | 100 | 100 | 60 | 100 | 98 | 0 | 0 | 20
